Where two headings read alike, the source gives them in different places. Non-standard residues stand in square brackets, D forms with d. Residues, ends and D or L forms follow the SMILES beside them. *: point of attachment. DOTA = O=C(O)CN1CCN(CC(=O)O)CCN(CC(=O)*)CCN(CC(=O)O)CC1; pY = N[C@@H](Cc1ccc(OP(=O)(O)O)cc1)C(=O)O; Nle = CCCC[C@H](N)C(=O)O
Legend:
MC1R (B16-F1 cells) = target: T1, MC1R (B16-F1 cells) (Mus musculus, UniProt Q01727); assay: Competition binding assay with [^125I]-NDP-MSH, mouse B16-F1 melanoma cells
T1 construct: endogenous in cells; host or cells: mouse B16-F1 melanoma cells
Method: (§1) Triplicates of 100-µL volumes of B16-F1 or HBL cell suspensions adjusted to 4 × 10^6/mL were incubated in 96-well U-bottom microplates (Falcon 3077). The binding medium consisted of MEM with Earle’s salts, 0.2% BSA, and 0.3 mM 1,10-phenanthroline. This binding medium was called mouse binding medium (MBM). Triplicates of competitor peptide solution (50 µL) yielding final concentrations ranging from 1 × 10^−6 to 1 × 10^−12 M were added. [^125I]NDP-MSH (50,000 cpm) in 50 µL was finally added to each well. The plates were incubated at 15°C for 3 h for B16-F1 cells and at 37°C for 2 h for HBL cells. The incubation was stopped by covering the plates with ice for 10 min. A cell harvester was used to collect cell-bound radioactivity on filters (Packard Unifilter-96 GF/B). The collected radioactivity was counted on a TopCount scintillation counter (Packard) after addition of 50 µL Microscint-20 scintillation cocktail (Perkin Elmer). The IC50 values were calculated with the Prism 6 software (GraphPad Software Inc., San Diego CA, USA).
(§2) The binding affinity of the peptides to MC1R was assessed by competition binding assays using [^125I]-NDP-MSH as radioligand and both murine B16-F1 and human HBL cells.

MC1R (HBL cells) = target: T2, MC1R (HBL cells) (Homo sapiens, UniProt Q01726); assay: Competition binding assay with [^125I]-NDP-MSH, human HBL melanoma cells
T2 construct: endogenous in cells; host or cells: human HBL melanoma cell line
Method: as §1, §2

[1] = Biodistribution of ^111In-labeled peptides in B16-F1 melanoma-bearing mice; type: in vivo, mouse (B6D2F1); details: female, iv, total radioactivity, ^111In-labeled peptide, 185 kBq i.v., mean ± SEM of three experiments, n = 5 animals each
Method: (§3) About 5 × 10^5 B16-F1 cells were implanted subcutaneously to female B6D2F1 mice (C57BL/6 × DBA/2F1 hybrids; breeding pairs obtained from IFFA-CREDO, France). Seven days later, 185 kBq of ^111In-labeled ligand in 200 µL PBS/0.1% BSA were injected intravenously into the lateral tail vein of each mouse. Control mice were injected with a mixture of the tracer and 50 µg α-MSH to determine the non-specific uptake of radioligand. The animals were sacrificed 4, 24, and 48 h postinjection, dissected, and the tissues of interest collected, rinsed of excess blood, and weighed. The radioactivity emitted by each organ was measured in a γ-counter to determine the tissue uptake as percentage of the injected dose (ID) per gram of tissue. The total of injected radioactivity per animal was determined by extrapolation from the counts of a standard collected from the injection solution for each animal. Urine samples were collected at 10, 15, and 20 min and 4 h after injection and kept frozen at −80°C until use. Urine (1 vol) was mixed with methanol (2 vol) to precipitate proteins, and the supernatant was analyzed by RP-HPLC/γ-detection, as described in Ref. ([12]).
(§4) Results are expressed as means ± SEM, unless otherwise stated. The statistical evaluation of data was performed using the one- or two-way ANOVA test. When significant overall effects were obtained by ANOVA, multiple comparisons were made with the Bonferroni correction. P < 0.05 was considered statistically significant. The area under the curve (AUC) was calculated with the GraphPad Prism 6 software for the indicated period of time, using the mean tissue uptake value at each time point.

[2] = test system: B16-F1 tumor-bearing mice; assay: as above; type: in vivo, mouse (B6D2F1)
Method: as §3, §4

[3] = B6D2F1 (C57BL/6 × DBA/2F1 hybrids), mouse, blood, read-out: Blood uptake
[4] = B6D2F1 (C57BL/6 × DBA/2F1 hybrids), mouse, muscle, read-out: Muscle uptake
[5] = B6D2F1 (C57BL/6 × DBA/2F1 hybrids), mouse, skin, read-out: Skin uptake
[6] = B6D2F1 (C57BL/6 × DBA/2F1 hybrids), mouse, tumor, read-out: Tumor uptake
[7] = B6D2F1, mouse, bone, read-out: Bone uptake
[8] = B6D2F1, mouse, heart, read-out: Heart uptake
[9] = B6D2F1, mouse, kidney, read-out: Kidney uptake
[10] = B6D2F1, mouse, liver, read-out: Liver uptake
[11] = B6D2F1, mouse, lung, read-out: Lung uptake
[12] = B6D2F1, mouse, pancreas, read-out: Pancreas uptake
[13] = B6D2F1, mouse, small intestines, read-out: Small intestines uptake
[14] = B6D2F1, mouse, spleen, read-out: Spleen uptake
[15] = B6D2F1, mouse, stomach, read-out: Stomach uptake
[16] = ^111In-labeled peptide, 185 kBq i.v., 4 h, mean ± SEM of three experiments, n = 5 animals each

T1 sequence (Q01727 whole entry): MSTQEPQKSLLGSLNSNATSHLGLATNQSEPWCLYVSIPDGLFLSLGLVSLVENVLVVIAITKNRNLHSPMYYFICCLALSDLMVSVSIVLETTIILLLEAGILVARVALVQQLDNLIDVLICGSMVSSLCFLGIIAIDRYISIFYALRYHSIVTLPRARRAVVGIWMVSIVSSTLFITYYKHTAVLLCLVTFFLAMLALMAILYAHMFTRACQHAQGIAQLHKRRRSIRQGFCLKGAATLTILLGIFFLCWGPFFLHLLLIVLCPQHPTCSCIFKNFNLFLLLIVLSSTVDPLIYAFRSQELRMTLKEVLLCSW
T2 sequence (Q01726 whole entry): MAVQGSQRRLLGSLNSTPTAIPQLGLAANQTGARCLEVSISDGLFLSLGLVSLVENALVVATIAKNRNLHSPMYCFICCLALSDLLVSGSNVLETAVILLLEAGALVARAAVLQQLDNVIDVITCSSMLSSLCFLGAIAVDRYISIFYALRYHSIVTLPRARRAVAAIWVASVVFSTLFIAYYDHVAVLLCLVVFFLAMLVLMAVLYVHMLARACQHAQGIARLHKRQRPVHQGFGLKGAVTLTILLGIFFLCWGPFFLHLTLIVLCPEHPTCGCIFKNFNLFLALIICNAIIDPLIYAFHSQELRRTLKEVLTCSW

With `CCCC[C@H](NC(=O)[C@H](Cc1ccc(OP(=O)(O)O)cc1)NC(=O)CNC(=O)CN1CCN(CC(=O)O)CCN(CC(=O)O)CCN(CC(=O)O)CC1)C(=O)N[C@@H](CC(=O)O)C(=O)N[C@@H](Cc1c[nH]cn1)C(=O)N[C@H](Cc1ccccc1)C(=O)N[C@@H](CCCNC(=N)N)C(=O)N[C@@H](Cc1c[nH]c2ccccc12)C(N)=O` [DOTA-Phospho-MSH2-9, DOTA-Gly-Tyr(P)-Nle-Asp-His-D-Phe-Arg-Trp-NH2] ({DOTA}-G[pY][Nle]DH[dF]RW-NH2) the IC50 (MC1R (B16-F1 cells)) was 2.32 ± 0.8 nM, the IC50 (MC1R (HBL cells)) was 3.03 ± 0.59 nM and the tissue uptake at 4 h [1, 3] was 0.02 %ID/g. It also gave a tissue uptake at 24 h [1, 3] of 0.01 %ID/g, a tissue uptake at 48 h ([1]; B6D2F1 (C57BL/6 × DBA/2F1 hybrids), mouse, bone, read-out: Bone uptake) of 0.06 ± 0.01 %ID/g and a tissue uptake at 4 h [1, 4] of 0.02 %ID/g. For the same molecule, the tissue uptake at 24 h [1, 4] was 0.02 %ID/g, the tissue uptake at 48 h [1, 4] was 0.02 %ID/g and the tissue uptake at 4 h [1, 5] was 0.12 ± 0.03 %ID/g. It also gave a tissue uptake at 24 h [1, 5] of 0.07 ± 0.02 %ID/g, a tissue uptake at 48 h [1, 5] of 0.08 ± 0.02 %ID/g and a tissue uptake at 24 h [1, 6] of 2.92 ± 0.12 %ID/g. The tissue uptake at 48 h [1, 6] was 1.21 ± 0.18 %ID/g, the tissue uptake at 4 h [1, 7] was 0.08 ± 0.01 %ID/g and the tissue uptake at 24 h [1, 7] was 0.11 ± 0.02 %ID/g. The tissue uptake at 4 h [1, 8] was 0.04 %ID/g, the tissue uptake at 24 h [1, 8] was 0.03 %ID/g and the tissue uptake at 48 h [1, 8] was 0.03 %ID/g. For the same molecule, the tissue uptake at 24 h [1, 9] was 1.88 ± 0.11 %ID/g, the tissue uptake at 48 h [1, 9] was 1.04 ± 0.07 %ID/g and the tissue uptake at 4 h [1, 10] was 0.2 ± 0.01 %ID/g. The tissue uptake at 24 h [1, 10] was 0.16 ± 0.02 %ID/g, the tissue uptake at 48 h [1, 10] was 0.12 ± 0.01 %ID/g and the tissue uptake at 4 h [1, 11] was 0.07 ± 0.02 %ID/g. It also gave a tissue uptake at 24 h [1, 11] of 0.04 %ID/g, a tissue uptake at 48 h [1, 11] of 0.03 %ID/g and a tissue uptake at 4 h [1, 12] of 0.05 ± 0.01 %ID/g. The tissue uptake at 24 h [1, 12] was 0.03 %ID/g, the tissue uptake at 48 h [1, 12] was 0.03 %ID/g and the tissue uptake at 4 h [1, 13] was 0.11 ± 0.03 %ID/g. The tissue uptake at 24 h [1, 13] was 0.06 %ID/g, the tissue uptake at 48 h [1, 13] was 0.06 %ID/g and the tissue uptake at 4 h [1, 14] was 0.11 ± 0.01 %ID/g. It also gave a tissue uptake at 24 h [1, 14] of 0.1 ± 0.01 %ID/g, a tissue uptake at 48 h [1, 14] of 0.09 ± 0.01 %ID/g and a tissue uptake at 4 h [1, 15] of 0.17 ± 0.08 %ID/g. The tissue uptake at 24 h [1, 15] was 0.16 ± 0.02 %ID/g, the tissue uptake at 48 h [1, 15] was 0.07 %ID/g and the “Tumor-to-kidney ratio compared with other peptides (in words)” value ([2]; AUC (4–48 h) or overall comparison) was “best tumor-to-kidney ratio of all linear MSH peptides so far investigated”. The Kidney uptake [2, 16] was 2.68 ± 0.18 %ID/g and the Tumor uptake [2, 16] was 7.33 ± 0.47 %ID/g.
